Tests used:
[1] = tested on: Phospholipase von Candida albicans; experiment: Inhibition of released exoenzymes (phospholipase) of Candida albicans blastoconidia, egg-yolk agar plate, turbidity halo; assay type: cell-based; conditions: Candida albicans Stamm 200/175, in vitro
Description: Zur Feststellung der Enzymhemmung wurde eine Suspension von Candida albicans Blastokonidien (Stamm 200/175), wobei die Keimdichte photometrisch auf eine Extinktion von 0,5 (500 nm) eingestellt war, mit Präparatelösung bzw. zur Kontrolle mit Lösungsmittellösung vermischt und zwar • a) 100 µl Präparatelösung (Suspension) • + 900 µl Keimsuspension • b) 100 µl Lösungsmittel • + 900 µl Keimsuspension Jeweils 5 µl der 30 min bei 21 ° C inkubierten Blastokonidiensuspension wurden auf eine Agarplatte (Sabourand Agar mit Zusatz von 8 % Eigelb, 1 m NaCI, 5 mM CaC12) aufgetropft.
Die so beimpfte Platte wurde 3 Tage bei 37 ° C bebrütet.
Die Auswertung erfolgte derart, daß • 1. der Durchmesser (mm) der Candida albicans-Kolonie (behandelt und unbehandelt) sowie • 2. der Gasamtdurchmesser von Kolonie und Trübungshof, welcher durch Exoenzyme verursacht wurde (behandelt und unbehandelt), bestimmt wurde.
Aus der Bestimmung des Quotienten von Präparate- und Kontrollgruppe ergab sich ein Wert, der als Maß für die Enzymaktivität anzusehen war.

[2] = tested on: Trichophyton mentagrophytes; experiment: Percent killing of Trichophyton mentagrophytes in vitro; assay type: cell-based; conditions: nach 14 h in aqua dest., read-out: %-Abtötung von Trichophyton mentagrophytes
From the text: Die pilzabtötende, antimykotische Wirksamkeit der Verbindungen wurde an einigen Beispielen (s. Tabelle 3) anhand der prozentualen Abtötung von Trichophyton mentagrophytes in vitro verifiziert (Standardpräparat Rilopirox als Vergleichssubstanz).

[3] = tested on: Phospholipase aus Leberzellen; conditions: in-vitro-Test, literature (Pappu A.S. et al., Biochem. Pharmacol. 34, 521-24, 1985); cited from earlier work

CC(C)(C)NCC(O)(COc1ccc(OCc2ccccc2)cc1)C(C)(C)C (centres unmarked) [1.5]
% Hemmung der Phospholipase ([1]; Konzentration 50 μm/ml): 100%
% Hemmung der Phospholipase ([1]; Konzentration 100 μm/ml): 100%

CC(C)NCC(O)(COc1ccc(Cl)cc1Cl)C(C)(C)C (centres unmarked) [1.7, 2-t-Butyl-1-(2,4-dichlorphenoxy)-3-isopropyl-amino-2-propanol]
% Hemmung der Phospholipase ([1]; Konzentration 10 μm/ml): 20%
% Hemmung der Phospholipase ([1]; Konzentration 100 μm/ml): 100%

CCCCNCC(O)(COc1ccc(C(C)(C)C)cc1)C(C)(C)C (centres unmarked) [1.11]
% Hemmung der Phospholipase ([1]; Konzentration 100 μm/ml): 100%

CCCCNCC(O)(COc1ccc(C(C)(C)C)cc1)c1ccc(-c2ccccc2)cc1 (centres unmarked) [1.15]
% Hemmung der Phospholipase ([1]; Konzentration 5 μm/ml): 100%
% Hemmung der Phospholipase ([1]; Konzentration 10 μm/ml): 100%
% Hemmung der Phospholipase ([1]; Konzentration 50 μm/ml): 100%
% Hemmung der Phospholipase ([1]; Konzentration 100 μm/ml): 100%

CCCCCCCCCCCCNCC(O)(COc1ccc(C(C)(C)C)cc1)c1ccc(-c2ccccc2)cc1 (centres unmarked) [1.17]
% Hemmung der Phospholipase ([1]; Konzentration 5 μm/ml): 100%
% Hemmung der Phospholipase ([1]; Konzentration 10 μm/ml): 100%
% Hemmung der Phospholipase ([1]; Konzentration 50 μm/ml): 100%
% Hemmung der Phospholipase ([1]; Konzentration 100 μm/ml): 100%
killing at 40 µg/mL [2]: 97.8%
killing at 80 µg/mL [2]: 100%

CCCCCCCOc1ccc(OCC(O)(CNCCCC)C(C)(C)C)cc1 (centres unmarked) [1.18]
% Hemmung der Phospholipase ([1]; Konzentration 5 μm/ml): 100%
% Hemmung der Phospholipase ([1]; Konzentration 10 μm/ml): 100%
% Hemmung der Phospholipase ([1]; Konzentration 50 μm/ml): 100%
% Hemmung der Phospholipase ([1]; Konzentration 100 μm/ml): 100%

CCCCCCCOc1ccc(OCC(O)(CNCc2ccccc2)C(C)(C)C)cc1 (centres unmarked) [1.19, 3-N-Benzylamino-2-t-butyl-1-(4-heptyloxy-phenyl-oxy)-2-propanol]
% Hemmung der Phospholipase ([1]; Konzentration 5 μm/ml): 100%
% Hemmung der Phospholipase ([1]; Konzentration 10 μm/ml): 100%
% Hemmung der Phospholipase ([1]; Konzentration 50 μm/ml): 100%
% Hemmung der Phospholipase ([1]; Konzentration 100 μm/ml): 100%

CCCCCCCOc1ccc(OCC(O)(CNCc2ccc(OC)c(OC)c2)C(C)(C)C)cc1 (centres unmarked) [1.21]
% Hemmung der Phospholipase ([1]; Konzentration 10 μm/ml): 100%
% Hemmung der Phospholipase ([1]; Konzentration 50 μm/ml): 100%
% Hemmung der Phospholipase ([1]; Konzentration 100 μm/ml): 100%

CCCCCCCOc1ccc(OCC(O)(CNCCC(c2ccccc2)c2ccccc2)C(C)(C)C)cc1 (centres unmarked) [1.22]
% Hemmung der Phospholipase ([1]; Konzentration 10 μm/ml): 10%
% Hemmung der Phospholipase ([1]; Konzentration 50 μm/ml): 100%
% Hemmung der Phospholipase ([1]; Konzentration 100 μm/ml): 100%

CCCCCCCCCCCCNCC(O)(COc1ccc(OCCCCCCC)cc1)C(C)(C)C (centres unmarked) [1.23]
% Hemmung der Phospholipase ([1]; Konzentration 5 μm/ml): 100%
% Hemmung der Phospholipase ([1]; Konzentration 10 μm/ml): 100%
% Hemmung der Phospholipase ([1]; Konzentration 50 μm/ml): 100%
% Hemmung der Phospholipase ([1]; Konzentration 100 μm/ml): 100%

CCCCCCCOc1ccc(OCC(O)(CNC(C)C)C(C)(C)C)cc1 (centres unmarked) [1.24]
% Hemmung der Phospholipase ([1]; Konzentration 5 μm/ml): 100%
% Hemmung der Phospholipase ([1]; Konzentration 10 μm/ml): 100%
% Hemmung der Phospholipase ([1]; Konzentration 50 μm/ml): 100%
% Hemmung der Phospholipase ([1]; Konzentration 100 μm/ml): 100%

CC1(C)CC(NCC(O)(COc2ccc(Oc3ccccc3)cc2)C(C)(C)C)CC(C)(C)N1 (centres unmarked) [1.31]
% Hemmung der Phospholipase ([1]; Konzentration 5 μm/ml): 7.7%
% Hemmung der Phospholipase ([1]; Konzentration 10 μm/ml): 100%
% Hemmung der Phospholipase ([1]; Konzentration 50 μm/ml): 100%
% Hemmung der Phospholipase ([1]; Konzentration 100 μm/ml): 100%

CCCCCCCCCCCCNCC(O)(COc1ccc(Oc2ccccc2)cc1)C(C)(C)C (centres unmarked) [1.34]
% Hemmung der Phospholipase ([1]; Konzentration 1 μm/ml): 6.3%
% Hemmung der Phospholipase ([1]; Konzentration 5 μm/ml): 33.3%
% Hemmung der Phospholipase ([1]; Konzentration 10 μm/ml): 100%
% Hemmung der Phospholipase ([1]; Konzentration 50 μm/ml): 100%
% Hemmung der Phospholipase ([1]; Konzentration 100 μm/ml): 100%

CC(C)(C)CC(C)(C)c1ccc(OCC(O)(CNCc2ccc(Cl)cc2Cl)C(C)(C)C)cc1 (centres unmarked) [1.48]
% Hemmung der Phospholipase ([1]; Konzentration 1 μm/ml): 14.3%
% Hemmung der Phospholipase ([1]; Konzentration 5 μm/ml): 100%
% Hemmung der Phospholipase ([1]; Konzentration 10 μm/ml): 100%
% Hemmung der Phospholipase ([1]; Konzentration 50 μm/ml): 100%
% Hemmung der Phospholipase ([1]; Konzentration 100 μm/ml): 100%

CCCCCCCCCCCCNCC(O)(COc1ccc(OCCCCCCC)cc1)c1ccccc1 (centres unmarked) [1.53]
% Hemmung der Phospholipase ([1]; Konzentration 5 μm/ml): 100%
% Hemmung der Phospholipase ([1]; Konzentration 10 μm/ml): 100%
% Hemmung der Phospholipase ([1]; Konzentration 50 μm/ml): 100%
% Hemmung der Phospholipase ([1]; Konzentration 100 μm/ml): 100%

CC(C)NCC(O)COc1cccc2ccccc12 (centres unmarked) [Propranolol, reference compound]
% Hemmung der Phospholipase ([1]; Konzentration 100 μm/ml): 30%
Hemmwirkung gegenüber Phospholipase aus Leberzellen [3]: wirksamste Substanz

Cc1cc(COc2ccc(Oc3ccc(Cl)cc3)cc2)n(O)c(=O)c1 [Rilopirox, reference compound]
killing at 40 µg/mL [2]: 100%
killing at 80 µg/mL [2]: 100%
